Assays:
giant foxtail = assay: Test B pre/postemergence giant foxtail; assay type: in vivo, Setaria faberii
Procedure, shortened: (§1)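 Herbicidal effect was estimated by eye on a ten-point control scale after plants spent twelve to sixteen days in a greenhouse following soil or foliar treatment. Foliar sprays targeted plants at one to four leaves; all doses were formulated in a non-phytotoxic solvent with surfactant.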

crabgrass = assay: Test B pre/postemergence crabgrass; assay type: in vivo, Digitaria sanguinalis
Procedure, shortened: as §1

blackgrass = assay: Test B pre/postemergence blackgrass; assay type: in vivo, Alopecurus myosuroides
Procedure, shortened: as §1

wild oat = assay: Test B pre/postemergence wild oat; assay type: in vivo, Avena fatua
Procedure, shortened: as §1

soybean = assay: Test B pre/postemergence soybean; assay type: in vivo, Glycine max
Procedure, shortened: as §1

pigweed = assay: Test B pre/postemergence pigweed; assay type: in vivo, Amaranthus retroflexus
Procedure, shortened: as §1

surinam grass = assay: Test B pre/postemergence surinam grass; assay type: in vivo, Brachiaria decumbens
Procedure, shortened: as §1

cocklebur = assay: Test B pre/postemergence cocklebur; assay type: in vivo, Xanthium strumarium
Procedure, shortened: as §1

bedstraw = assay: Test B pre/postemergence bedstraw; assay type: in vivo, Galium aparine
Procedure, shortened: as §1

rape = assay: Test B pre/postemergence rape; assay type: in vivo, Brassica napus
Procedure, shortened: as §1

morningglory = assay: Test B pre/postemergence morningglory; assay type: in vivo, Ipomoea hederacea
Procedure, shortened: as §1

purple nutsedge = assay: Test B pre/postemergence purple nutsedge; assay type: in vivo, Cyperus rotundus
Procedure, shortened: as §1

wheat = assay: Test B pre/postemergence wheat; assay type: in vivo, Triticum aestivum
Procedure, shortened: as §1

sugar beet = assay: Test B pre/postemergence sugar beet; assay type: in vivo, Beta vulgaris
Procedure, shortened: as §1

corn = assay: Test B pre/postemergence corn; assay type: in vivo, Zea mays
Procedure, shortened: as §1

velvetleaf = assay: Test B pre/postemergence velvetleaf; assay type: in vivo, Abutilon theophrasti
Procedure, shortened: as §1

[1] = Postemergence, Rate 62 g/ha, scale 0 to 10, 0 is no effect, 10 is complete control
[2] = Postemergence, Rate 125 g/ha, scale of 0 to 10 where 0 is no effect and 10 is complete control
[3] = Postemergence, Rate 500 g/ha, scale 0 (no effect) to 10 (complete control)
[4] = Preemergence, Rate 250 g/ha, scale 0 (no effect) to 10 (complete control)
[5] = Rate 62 g/ha, Preemergence, scale 0 to 10
[6] = Rate 125 g/ha, Preemergence, scale 0 to 10 (0 no effect, 10 complete control)
[7] = Rate 250 g/ha, Postemergence, scale 0 to 10, 0 is no effect, 10 is complete control
[8] = Rate 500 g/ha, Preemergence, scale 0 to 10 (0 no effect, 10 complete control)

CCOC(CC)n1c(=O)on(C(=O)N(c2ccc(F)cc2F)C(C)C)c1=O (stereo not drawn) [Compound 774]
0: Plant response rating, Giant foxtail (giant foxtail; [1]) | Giant foxtail plant response rating (giant foxtail; [2]) | Giant foxtail plant response rating (giant foxtail; [3]) | Giant foxtail plant response rating (giant foxtail; [4]) | Giant foxtail plant response rating (giant foxtail; [5]) | Giant foxtail plant response rating (giant foxtail; [6]) | Giant foxtail plant response rating (giant foxtail; [7]) | Giant foxtail plant response rating (giant foxtail; [8]) | Plant response rating, Crabgrass (crabgrass; [1]) | Crabgrass plant response rating (crabgrass; [2]) | Crabgrass plant response rating (crabgrass; [3]) | Crabgrass plant response rating (crabgrass; [4]) | Crabgrass plant response rating (crabgrass; [5]) | Crabgrass plant response rating (crabgrass; [6]) | Crabgrass plant response rating (crabgrass; [7]) | Crabgrass plant response rating (crabgrass; [8]) | Plant response rating, Blackgrass (blackgrass; [1]) | Blackgrass plant response rating (blackgrass; [2]) | Blackgrass plant response rating (blackgrass; [3]) | Blackgrass plant response rating (blackgrass; [4]) | Blackgrass plant response rating (blackgrass; [5]) | Blackgrass plant response rating (blackgrass; [6]) | Blackgrass plant response rating (blackgrass; [7]) | Blackgrass plant response rating (blackgrass; [8]) | Plant response rating, Wild oats (wild oat; [1]) | Wild oats plant response rating (wild oat; [3]) | Wild oats plant response rating (wild oat; [5]) | Wild oats plant response rating (wild oat; [6]) | Wild oats plant response rating (wild oat; [7]) | Wild oats plant response rating (wild oat; [8]) | Plant response rating, Soybean (soybean; [1]) | Soybean plant response rating (soybean; [3]) | Soybean plant response rating (soybean; [5]) | Soybean plant response rating (soybean; [6]) | Soybean plant response rating (soybean; [7]) | Soybean plant response rating (soybean; [8]) | Plant response rating, Redroot pigweed (pigweed; [1]) | Redroot pigweed plant response rating (pigweed; [2]) | Redroot pigweed plant response rating (pigweed; [3]) | Redroot pigweed plant response rating (pigweed; [5]) | Redroot pigweed plant response rating (pigweed; [6]) | Redroot pigweed plant response rating (pigweed; [7]) | Redroot pigweed plant response rating (pigweed; [8]) | Plant response rating, B. signalgrass (surinam grass; [1]) | B. signalgrass plant response rating (surinam grass; [2]) | B. signalgrass plant response rating (surinam grass; [4]) | B. signalgrass plant response rating (surinam grass; Rate 62 g/ha, Preemergence, scale 0 (no effect) to 10 (complete control)) | B. signalgrass plant response rating (surinam grass; [6]) | B. signalgrass plant response rating (surinam grass; [7]) | B. signalgrass plant response rating (surinam grass; Rate 500 g/ha, Postemergence, scale 0 to 10, 0 is no effect, 10 is complete control) | B. signalgrass plant response rating (surinam grass; [8]) | Plant response rating, Cocklebur (cocklebur; [1]) | Cocklebur plant response rating (cocklebur; [2]) | Cocklebur plant response rating (cocklebur; [3]) | Cocklebur plant response rating (cocklebur; [4]) | Cocklebur plant response rating (cocklebur; [5]) | Cocklebur plant response rating (cocklebur; [6]) | Cocklebur plant response rating (cocklebur; [7]) | Cocklebur plant response rating (cocklebur; [8]) | Plant response rating, Bedstraw (bedstraw; [1]) | Bedstraw plant response rating (bedstraw; [2]) | Bedstraw plant response rating (bedstraw; [3]) | Bedstraw plant response rating (bedstraw; [4]) | Bedstraw plant response rating (bedstraw; [5]) | Bedstraw plant response rating (bedstraw; [6]) | Bedstraw plant response rating (bedstraw; [7]) | Bedstraw plant response rating (bedstraw; [8]) | Plant response rating, Rape (rape; [1]) | Rape plant response rating (rape; [2]) | Rape plant response rating (rape; [3]) | Rape plant response rating (rape; [5]) | Rape plant response rating (rape; [6]) | Rape plant response rating (rape; [7]) | Rape plant response rating (rape; [8]) | Plant response rating, Morningglory (morningglory; [1]) | Morningglory plant response rating (morningglory; [2]) | Morningglory plant response rating (morningglory; [3]) | Morningglory plant response rating (morningglory; [5]) | Morningglory plant response rating (morningglory; [6]) | Morningglory plant response rating (morningglory; [7]) | Morningglory plant response rating (morningglory; [8]) | Plant response rating, Nutsedge (purple nutsedge; [1]) | Nutsedge plant response rating (purple nutsedge; [2]) | Nutsedge plant response rating (purple nutsedge; [3]) | Nutsedge plant response rating (purple nutsedge; [5]) | Nutsedge plant response rating (purple nutsedge; [6]) | Nutsedge plant response rating (purple nutsedge; [7]) | Nutsedge plant response rating (purple nutsedge; [8]) | Plant response rating, Wheat (wheat; [1]) | Wheat plant response rating (wheat; [3]) | Wheat plant response rating (wheat; [5]) | Wheat plant response rating (wheat; [6]) | Wheat plant response rating (wheat; [7]) | Wheat plant response rating (wheat; [8]) | Plant response rating, Sugarbeets (sugar beet; [1]) | Sugarbeets plant response rating (sugar beet; [3]) | Sugarbeets plant response rating (sugar beet; [5]) | Sugarbeets plant response rating (sugar beet; [6]) | Sugarbeets plant response rating (sugar beet; [7]) | Sugarbeets plant response rating (sugar beet; [8]) | Plant response rating, Corn (corn; [1]) | Corn plant response rating (corn; [2]) | Corn plant response rating (corn; [3]) | Corn plant response rating (corn; [4]) | Corn plant response rating (corn; [5]) | Corn plant response rating (corn; [6]) | Corn plant response rating (corn; [7]) | Corn plant response rating (corn; [8]) | Plant response rating, Velvetleaf (velvetleaf; [1]) | Velvetleaf plant response rating (velvetleaf; [3]) | Velvetleaf plant response rating (velvetleaf; [5]) | Velvetleaf plant response rating (velvetleaf; [6]) | Velvetleaf plant response rating (velvetleaf; [7]) | Velvetleaf plant response rating (velvetleaf; [8])
